Measured values: patent US7615356B2, “Ion channel assay methods” (Vertex Pharmaceuticals (San Diego) LLC, priority 2000, dated 2009)
“Also recorded” adds a separate entry of the source. Where two headings read alike, the source gives them in different places.

Tests used:
[1] = system: TTX-resistant Nav channels; settings: cited from earlier work
Nav1.8 [2] = molecular target: Nav1.8 (UniProt Q9Y5Y9); test: Induced spontaneous firing of Nav1.8 expressing cells, high-frequency monophasic pulses; type: cell-based
[3] = molecular target: endogenous NaV channels of Chinese Hamster Ovary cells (Nav 1.2a) (Cricetulus griseus, UniProt A0A8C2MK62); test: Use-dependent block, repetitive electrical stimulation at 1 Hz, CHO cells; type: cell-based
[4] = system: voltage-activated chloride and potassium channels of wild-type HEK-293 cells
HL5 cardiac muscle cells = type: cell-based
[5] = molecular target: voltage dependent sodium channel (NaV1) endogenously expressed in wild type CHO cells (Cricetulus griseus, UniProt A0A8C2MK62)
Nav 1.2a = Nav 1.2a (Rattus norvegicus, UniProt P04775, N209D); settings: published; cited from earlier work
[6] = molecular target: potassium inward rectifier channel IRK1 (Rattus norvegicus, UniProt Q64273)
[7] = system: sodium channels in dorsal root ganglion (DRG) neurons; test: Dorsal root ganglion neuron assay, electrical stimulation at different external potassium; type: cell-based, rat; settings: before and after addition of 16 mM potassium
Method: We have developed a dorsal root ganglion (DRG) neuron assay on the electrical stimulation with optical detection platform that allows us to detect and quantify voltage dependent blockers of the sodium channels in these neurons. The DRG neurons were dissociated from neonatal rat pups and stained with FRET voltage sensing dyes. The neurons were then placed in the middle of the well on a 96 well plate and preincubated with varying concentrations of the test compound. Electrical stimulation was applied and the resulting response recorded by the plate reader. Dose response plots were then constructed for each compound tested. Increased levels of potassium were then added to depolarize the neurons and move more of the sodium channels into the inactivated state. […] This estimates the degree of voltage or state dependence for these compounds. […] As shown, the high potassium levels depolarize the cells. The compounds' block is voltage dependent, a type of use-dependent activity. […] This example illustrates also the use of this method with primary neurons.

Nav1.8 [8] = molecular target: Nav1.8 (UniProt Q9Y5Y9); test: Paired-pulse train stimulation, recovery from block, cells expressing Nav1.8; settings: for IC50: approximate, from previous experiment
N-type calcium channel = N-type calcium channel (Homo sapiens, UniProt Q00975); test: Hexyl oxonol assay for use-dependent blockers of CaV; type: cell-based; settings: 5 μM
Method: Assays can also be developed using fast membrane potential sensors, such as DISBAC6(3) and CC2-DMPE voltage-sensitive FRET probes, to detect use-dependent compounds for voltage-gated Ca targets. The following illustrative example is for an N-type calcium channel using hardware compatible with 96 well plates.
Prepare a solution of 2× CC2DMPE and DISBAC6(3) by Vortexing together 10 mM CC2DMPE (in DMSO) and 10 mM DISBAC6(3) (in DMSO) with an equivalent volume of 10% pluronic (in DMSO). Vortex in required amount of bath. Each cell plate will require 5 ml of this solution. Wash plate with a plate washer leaving a residual volume of 50 μl. Add 50 μL of 2× CC2DMPE to wells. Resulting concentrations of dyes will be 4 μM CC2-DMPE and 1.25 μM DISBAC6(3). Stain for 30 minutes in the dark at RT. The test compounds are prepared at 2× concentration in extracellular ringer solution and added to wells containing stained cells. Stimulation parameters such as stimulation frequency, pulse duration, stimulation voltage can be easily manipulated to elicit desired responses.
FIG. 40 illustrates an example of how a use-dependent compound such as mibefradil can be detected using this hexyl assay.

NaV4 sodium channel = type: cell-based; settings: HEK-293 NaV4; 33 V/cm, 10 ms/phase biphasic, 15 Hz burst for 1.5 seconds; read-out: estimated EC50 (Hill function fit)
Description: For this experiment, electrical stimulation parameters were E=33 V/cm, 10 ms/phase biphasic stimulation, 15 Hz burst for 1.5 seconds.
To determine whether the present method is generally applicable to a wide range of different sodium channels, HEK-293 cells were stably transfected with another voltage dependent sodium channel, hereinafter referred to as NaV4. These cells were transfected, selected and loaded with FRET dyes as described in section VI and Example 8.

[9] = 1 Hz stimulation, 1st peak response
[10] = 1 Hz stimulation, 20th peak response
[11] = read-out: IC50 @ 1st peak, 1 Hz stimulation, 1st peak response
[12] = read-out: IC50 @ 20th peak, 1 Hz stimulation, 20th peak response

Chain of voltage dependent sodium channel (NaV1) endogenously expressed in wild type CHO cells (A0A8C2MK62 1-2006): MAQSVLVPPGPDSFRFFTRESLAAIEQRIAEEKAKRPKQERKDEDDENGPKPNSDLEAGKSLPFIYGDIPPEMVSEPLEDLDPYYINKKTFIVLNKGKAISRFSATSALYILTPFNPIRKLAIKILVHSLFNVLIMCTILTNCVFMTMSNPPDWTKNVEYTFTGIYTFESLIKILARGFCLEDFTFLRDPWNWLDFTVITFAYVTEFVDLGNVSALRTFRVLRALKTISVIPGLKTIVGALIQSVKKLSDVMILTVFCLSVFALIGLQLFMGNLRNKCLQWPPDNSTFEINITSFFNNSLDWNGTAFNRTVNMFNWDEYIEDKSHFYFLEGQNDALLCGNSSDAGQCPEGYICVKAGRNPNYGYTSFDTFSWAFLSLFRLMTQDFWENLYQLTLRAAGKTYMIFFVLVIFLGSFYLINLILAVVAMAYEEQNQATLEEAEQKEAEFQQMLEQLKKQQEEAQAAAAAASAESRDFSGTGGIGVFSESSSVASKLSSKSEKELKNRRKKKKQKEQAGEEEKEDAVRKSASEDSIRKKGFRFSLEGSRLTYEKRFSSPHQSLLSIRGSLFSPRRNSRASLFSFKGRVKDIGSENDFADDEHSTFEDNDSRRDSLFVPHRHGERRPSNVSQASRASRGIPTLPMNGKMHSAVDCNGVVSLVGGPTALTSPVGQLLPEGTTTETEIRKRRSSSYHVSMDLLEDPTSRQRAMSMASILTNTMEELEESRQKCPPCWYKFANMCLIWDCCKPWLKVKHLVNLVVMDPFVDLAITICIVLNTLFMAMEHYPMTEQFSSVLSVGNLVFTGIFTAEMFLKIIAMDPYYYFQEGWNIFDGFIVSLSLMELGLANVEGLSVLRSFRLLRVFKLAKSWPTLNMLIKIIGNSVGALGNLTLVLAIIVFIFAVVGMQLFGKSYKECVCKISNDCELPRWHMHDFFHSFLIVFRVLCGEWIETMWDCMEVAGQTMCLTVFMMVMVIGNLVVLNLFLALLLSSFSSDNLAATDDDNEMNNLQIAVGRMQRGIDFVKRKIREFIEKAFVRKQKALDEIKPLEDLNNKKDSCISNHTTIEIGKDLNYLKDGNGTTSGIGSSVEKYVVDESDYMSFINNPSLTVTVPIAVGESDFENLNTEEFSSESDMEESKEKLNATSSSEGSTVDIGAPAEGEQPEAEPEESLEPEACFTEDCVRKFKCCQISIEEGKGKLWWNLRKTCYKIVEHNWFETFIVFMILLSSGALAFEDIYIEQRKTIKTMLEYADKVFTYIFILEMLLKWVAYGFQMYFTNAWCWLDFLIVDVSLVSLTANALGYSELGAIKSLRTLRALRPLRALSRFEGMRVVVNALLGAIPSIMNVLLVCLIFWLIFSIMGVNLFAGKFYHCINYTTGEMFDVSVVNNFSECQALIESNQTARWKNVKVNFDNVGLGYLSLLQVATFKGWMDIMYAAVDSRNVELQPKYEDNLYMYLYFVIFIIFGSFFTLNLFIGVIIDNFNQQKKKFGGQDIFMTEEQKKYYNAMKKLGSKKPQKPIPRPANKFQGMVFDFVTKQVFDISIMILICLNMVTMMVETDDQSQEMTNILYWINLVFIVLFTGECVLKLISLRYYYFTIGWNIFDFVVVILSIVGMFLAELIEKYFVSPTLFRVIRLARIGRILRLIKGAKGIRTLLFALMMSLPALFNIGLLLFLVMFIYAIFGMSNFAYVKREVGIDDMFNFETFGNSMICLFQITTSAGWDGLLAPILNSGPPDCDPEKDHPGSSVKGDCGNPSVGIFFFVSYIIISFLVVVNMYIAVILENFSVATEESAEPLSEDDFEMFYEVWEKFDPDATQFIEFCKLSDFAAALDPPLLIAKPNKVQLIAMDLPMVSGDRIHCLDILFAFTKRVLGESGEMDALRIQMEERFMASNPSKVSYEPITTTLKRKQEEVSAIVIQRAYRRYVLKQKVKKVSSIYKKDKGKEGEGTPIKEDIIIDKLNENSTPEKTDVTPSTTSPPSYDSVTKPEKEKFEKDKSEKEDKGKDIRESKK
Chain of endogenous NaV channels of Chinese Hamster Ovary cells (Nav 1.2a) (A0A8C2MK62 entry or part of it): as the sequence (A0A8C2MK62 1-2006) above
Chain of Nav 1.2a (P04775 whole entry N209D): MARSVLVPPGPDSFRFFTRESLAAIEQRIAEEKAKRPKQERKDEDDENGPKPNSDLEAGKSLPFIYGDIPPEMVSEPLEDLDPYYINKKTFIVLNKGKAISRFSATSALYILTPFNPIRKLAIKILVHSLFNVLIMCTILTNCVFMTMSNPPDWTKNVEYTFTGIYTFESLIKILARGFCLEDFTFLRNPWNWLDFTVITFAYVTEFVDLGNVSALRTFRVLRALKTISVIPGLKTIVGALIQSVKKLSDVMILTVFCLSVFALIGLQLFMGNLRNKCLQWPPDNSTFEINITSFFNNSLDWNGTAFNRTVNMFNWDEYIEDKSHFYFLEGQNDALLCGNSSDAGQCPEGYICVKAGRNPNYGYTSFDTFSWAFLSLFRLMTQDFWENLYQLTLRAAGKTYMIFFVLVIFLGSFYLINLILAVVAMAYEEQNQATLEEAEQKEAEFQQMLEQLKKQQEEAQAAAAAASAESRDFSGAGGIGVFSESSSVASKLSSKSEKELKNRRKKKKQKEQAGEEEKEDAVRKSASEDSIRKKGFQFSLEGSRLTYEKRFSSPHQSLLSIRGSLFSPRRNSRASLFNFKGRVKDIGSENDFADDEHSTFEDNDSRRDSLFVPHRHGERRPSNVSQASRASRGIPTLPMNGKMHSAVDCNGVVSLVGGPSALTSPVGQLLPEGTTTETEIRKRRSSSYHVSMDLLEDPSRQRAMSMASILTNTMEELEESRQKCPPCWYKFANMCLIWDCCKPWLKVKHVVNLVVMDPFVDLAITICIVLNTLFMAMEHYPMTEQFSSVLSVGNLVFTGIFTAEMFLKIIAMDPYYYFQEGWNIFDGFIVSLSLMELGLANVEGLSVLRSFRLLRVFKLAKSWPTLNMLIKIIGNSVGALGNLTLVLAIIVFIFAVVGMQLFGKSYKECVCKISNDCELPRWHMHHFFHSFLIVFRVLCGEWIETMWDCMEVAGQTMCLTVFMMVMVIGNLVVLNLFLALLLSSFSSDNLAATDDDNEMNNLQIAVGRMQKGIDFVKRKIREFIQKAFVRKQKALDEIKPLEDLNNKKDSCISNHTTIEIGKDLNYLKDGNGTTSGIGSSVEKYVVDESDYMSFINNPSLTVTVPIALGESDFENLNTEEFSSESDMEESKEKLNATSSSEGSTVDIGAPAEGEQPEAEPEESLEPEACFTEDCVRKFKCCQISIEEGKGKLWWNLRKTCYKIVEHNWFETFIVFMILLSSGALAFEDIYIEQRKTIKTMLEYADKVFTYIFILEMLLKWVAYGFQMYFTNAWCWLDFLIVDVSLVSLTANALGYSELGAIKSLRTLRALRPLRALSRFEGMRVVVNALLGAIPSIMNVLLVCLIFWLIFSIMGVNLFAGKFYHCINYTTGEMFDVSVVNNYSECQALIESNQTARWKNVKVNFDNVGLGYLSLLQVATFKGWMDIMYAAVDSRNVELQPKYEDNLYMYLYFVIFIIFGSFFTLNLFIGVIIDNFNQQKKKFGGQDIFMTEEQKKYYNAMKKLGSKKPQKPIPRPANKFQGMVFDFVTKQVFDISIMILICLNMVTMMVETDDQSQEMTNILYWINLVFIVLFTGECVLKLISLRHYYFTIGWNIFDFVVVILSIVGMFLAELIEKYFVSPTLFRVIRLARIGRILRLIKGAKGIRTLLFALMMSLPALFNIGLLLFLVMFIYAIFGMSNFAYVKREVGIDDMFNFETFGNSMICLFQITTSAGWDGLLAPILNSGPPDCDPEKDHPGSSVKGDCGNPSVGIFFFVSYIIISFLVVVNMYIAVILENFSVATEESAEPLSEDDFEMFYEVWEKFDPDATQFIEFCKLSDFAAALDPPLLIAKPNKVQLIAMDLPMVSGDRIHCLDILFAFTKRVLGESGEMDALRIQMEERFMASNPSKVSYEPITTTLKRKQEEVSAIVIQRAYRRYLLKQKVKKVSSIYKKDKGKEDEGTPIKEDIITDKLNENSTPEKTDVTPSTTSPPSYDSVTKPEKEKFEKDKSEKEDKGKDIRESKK
Chain of potassium inward rectifier channel IRK1 (Q64273 whole entry): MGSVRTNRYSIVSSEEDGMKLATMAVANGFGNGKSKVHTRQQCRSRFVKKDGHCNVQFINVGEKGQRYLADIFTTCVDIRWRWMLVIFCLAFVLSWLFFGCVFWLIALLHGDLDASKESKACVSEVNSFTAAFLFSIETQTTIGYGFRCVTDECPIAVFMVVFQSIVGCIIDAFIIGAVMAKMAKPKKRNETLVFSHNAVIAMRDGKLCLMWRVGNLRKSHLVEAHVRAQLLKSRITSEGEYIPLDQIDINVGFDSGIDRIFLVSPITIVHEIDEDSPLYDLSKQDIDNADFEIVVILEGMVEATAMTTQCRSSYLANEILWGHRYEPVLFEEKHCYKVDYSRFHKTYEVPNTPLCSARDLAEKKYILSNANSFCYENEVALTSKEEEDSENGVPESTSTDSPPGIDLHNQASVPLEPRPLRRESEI

CCCCN1CCCCC1C(=O)Nc1c(C)cccc1C (centres unmarked) [Bupivacaine]
firing rate in neuron slice preparation [1]: slower firing rate

CCN(CC)CC(=O)Nc1c(C)cccc1C [Lidocaine]
effect on induced spontaneous firing (Nav1.8 [2]): gradually increased the interspike interval
firing rate in neuron slice preparation [1]: slower firing rate
use-dependent block of endogenous NaV channels [3]: only minor or no use-dependent block

CC[N+](CC)(CC)CC [TEA, Tetraethylammonium]
effect on the negative voltage response [4]: partially blocks

NC1=N[C@H](O)[C@H]2[C@H]3O[C@]4(O)O[C@@H]([C@@H](O)[C@@]2(N1)[C@@H]4O)[C@]3(O)CO [TTX, tetrodotoxin]
EC50 (NaV3 sodium channel; read-out: EC50 (Hill function fit)): 0.025 µM
effect on the positive response (HL5 cardiac muscle cells): partially blocks
sustained signal above 50 V/cm (HL5 cardiac muscle cells): unaffected
Hill coefficient [5]: 1.47
block of the effect of electrical stimulation [5]: completely block
EC50 ([5]; read-out: EC50 (Hill function fit to dose response)): 0.009 µM
use-dependent block of endogenous NaV channels [3]: only minor or no use-dependent block; also recorded: least use-dependent

CN(C)CCC=C1c2ccccc2CCc2ccccc21 [amitriptyline]
IC50 (Nav 1.2a): 5.5 µM
Hill coeff. @ 1st peak [3]: 2.65
Hill coeff. @ 20th peak [3]: 1.07
UDI (1 Hz), ratio of IC50(1st response) over IC50(20th response) [3]: 3.24
IC50 ([3]; read-out: IC50 @ 1st peak): 5.19 ± 1.57 µM
IC50 ([3]; read-out: IC50 @ 20th peak): 1.6 ± 0.38 µM

[Ba+2].[Cl-].[Cl-] [barium chloride]
voltage change during stimulation with block [6]: no detectable voltage change

CCCCOc1cc(C(=O)NCCN(CC)CC)c2ccccc2n1 [dibucaine]
UDI (1 Hz), ratio of IC50(1st response) over IC50(20th response) ([3]; 1 Hz for 20 seconds): 2.36
Hill coeff. @ 1st peak [3, 9]: 2.35
Hill coeff. @ 20th peak [3, 10]: 1.19
IC50 [3, 11]: 1.19 ± 0.22 µM
IC50 [3, 12]: 0.51 ± 0.11 µM

Nc1nnc(-c2cccc(Cl)c2Cl)c(N)n1 [lamotrigine]
effect on induced spontaneous firing (Nav1.8 [2]): gradually increased the interspike interval
shift of dose response curve after elevated potassium [7]: leftward shifted
IC50 (Nav1.8 [8]): ~50 µM

Cc1cccc(C)c1OCC(C)N (centres unmarked) [mexiletine]
IC50 (Nav 1.2a): 21 to 533 µM
Hill coeff. @ 1st peak [3]: 3.07
Hill coeff. @ 20th peak [3]: 0.98
UDI (1 Hz), ratio of IC50(1st response) over IC50(20th response) [3]: 2.59
IC50 ([3]; read-out: IC50 @ 1st peak): 58.1 ± 11 µM
IC50 ([3]; read-out: IC50 @ 20th peak): 22.5 ± 5.31 µM

COCC(=O)O[C@]1(CCN(C)CCCc2nc3ccccc3[nH]2)CCc2cc(F)ccc2[C@@H]1C(C)C [mibefradil]
change in response lineshape (N-type calcium channel): use-dependent block

CCCCNc1ccc(C(=O)OCCN(C)C)cc1 [tetracaine]
EC50 (NaV4 sodium channel): 35 µM
shift of dose response curve after elevated potassium [7]: leftward shifted
EC50 (NaV3 sodium channel; read-out: EC50 (fit to dose-response curve), HEK-293 NaV3, 33 V/cm, 10 ms/phase biphasic, 15 Hz burst for 1.5 seconds): 11 µM
time to recover from use-dependent block (Nav1.8 [8]; 4 μM): approximately 1000 ms
IC50 (Nav1.8 [8]): ~4 µM
UDI (1 Hz), ratio of IC50(1st response) over IC50(20th response) ([3]; 1 Hz for 20 seconds): 8.40
use-dependent block of endogenous NaV channels ([3]; 1 Hz for 20 seconds, in words): decreased ratio of last peak response over first peak response and more additional block than TTX and most
Hill coeff. @ 1st peak [3, 9]: 1.81
Hill coeff. @ 20th peak [3, 10]: 0.66
IC50 [3, 11]: 2.77 ± 1.23 µM
IC50 [3, 12]: 0.33 ± 0.2 µM

COC(=O)[C@@H]1[C@H]2C[C@H]3c4[nH]c5ccccc5c4CCN3C[C@@H]2CC[C@@H]1O [yohimbine]
UDI (1 Hz), ratio of IC50(1st response) over IC50(20th response) ([3]; 1 Hz for 20 seconds): 5.67
Hill coeff. @ 1st peak [3, 9]: 2.05
IC50 ([3]; 1 Hz stimulation, 1st peak response, read-out: IC50 @ 1st peak): 26.7 ± 7.26 µM
Hill coeff. @ 20th peak [3, 10]: 0.99
IC50 ([3]; 1 Hz stimulation, 20th peak response, read-out: IC50 @ 20th peak): 4.7 ± 1.94 µM
